Data taken from patent US20200247812A1 (Integral Biosciences Private Limited, priority 2018, published 2020).

Molecular target: T1, ALK 5 (Homo sapiens, UniProt P36897)
T1 sequence (P36897 34-503): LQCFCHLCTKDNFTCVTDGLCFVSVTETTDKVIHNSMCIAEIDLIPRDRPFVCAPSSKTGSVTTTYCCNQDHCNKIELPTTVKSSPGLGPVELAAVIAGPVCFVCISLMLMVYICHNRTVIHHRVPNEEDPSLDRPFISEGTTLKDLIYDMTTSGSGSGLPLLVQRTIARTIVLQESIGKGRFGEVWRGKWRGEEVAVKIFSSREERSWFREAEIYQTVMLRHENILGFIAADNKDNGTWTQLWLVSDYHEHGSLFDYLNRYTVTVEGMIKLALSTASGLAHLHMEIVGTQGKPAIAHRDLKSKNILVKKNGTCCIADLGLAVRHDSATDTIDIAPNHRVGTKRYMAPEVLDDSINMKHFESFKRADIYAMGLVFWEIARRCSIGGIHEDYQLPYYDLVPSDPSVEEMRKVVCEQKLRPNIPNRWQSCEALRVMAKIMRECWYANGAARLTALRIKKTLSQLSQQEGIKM
Test: In vitro kinase assay (ALK5 IC50, LanthaScreen Terbium labeled TR-FRET)
Type: biochemical
Conditions: TGF-β kinase 6 nM, ATP 10 μM, read-out: Enzyme Activity ALK 5 IC50
Description: Compounds of the invention were screened in an in vitro kinase assay against ALK 5, a members of the TGF-β family of Ser/Thr kinases. Standard kinase testing conditions and techniques were employed. IC50 values of compounds against TGF-ß kinase was determined by LanthaScreen™ Terbium Labeled TR-FRET assay. Kinase assays were performed in 1X kinase buffer (# PV6135, Invitrogen, Life Technologies Grand Island, N.Y.) where total reaction volume was 10 μL in low-volume 384-well plates (#4511, Corning). Serially diluted compounds (3-fold) were incubated with TGF-β kinase (6 nM) for 10 min, following which a mixture of ATP (10 μM) (# A1852, Sigma, St-Louis, Mo.) and fluorescent-PolyGT substrate (200 nM); Cat # PV3610, Invitrogen, Life Technologies Grand Island, N.Y.) was added and incubated in dark at room temperature for 1 h. After 1 h, 10 μL stop solution containing Terbium labeled antibody (4 nM; Cat # PV3529, Invitrogen, Life Technologies Grand Island, N.Y.) and EDTA (# E5134, Sigma, St-Louis, Mo.; 20 mM) in TR-FRET dilution buffer (Cat # PV3574, Invitrogen, Life Technologies Grand Island, N.Y.) was added. Readings were taken in a Synergy Neo Plate reader (BioTek, Winooski) at single excitation of 340 nm and Dual emission at 495 nm and 520 nm respectively.
The % activity of test samples was calculated as (Sample-Min)×100/(Max −Min). [Max: DMSO control, complete reaction with enzyme with DMSO and Min: No enzyme with DMSO]. Percent inhibition (100-% activity) was fitted to the “four-parameter logistic model” in XLfit for determination of IC50 values.

SMILES | IC50
C[C@@H](O)CNC(=O)c1cnccc1Nc1cc(-c2cc(Cl)ccc2F)c(=O)n2c1N(C)CCC2 [Compound 1.26, (R)-4-((7-(5-chloro-2-fluorophenyl)-1-methyl-6-oxo-1,3,4,6-tetrahydro-2H-pyrido[1,2-a]pyrimidin-9-yl)amino)-N-(2-hydroxypropyl)nicotinamide] | > 5000 nM
CC(C)c1[nH]c(=O)c(-c2cc(Cl)ccc2F)cc1Nc1ccnc(NC2CC2)c1 [Compound 1.55, 3-(5-chloro-2-fluorophenyl)-5-((2-(cyclopropylamino)pyridin-4-yl)amino)-6-isopropylpyridin-2(1H)-one] | 2000 to 5000 nM
C[C@H](O)CNC(=O)c1cnccc1Nc1cc(-c2cc(Cl)ccc2F)c(=O)n2c1N(C)CCC2 [Compound 1.20, (S)-4-((7-(5-chloro-2-fluorophenyl)-1-methyl-6-oxo-1,3,4,6-tetrahydro-2H-pyrido[1,2-a]pyrimidin-9-yl)amino)-N-(2-hydroxypropyl)nicotinamide] | > 5000 nM
C[C@@H](CO)NC(=O)c1cnccc1Nc1cc(-c2cc(Cl)ccc2F)c(=O)n(C)c1N(C)C [Compound 1.17, (S)-4-((5-(5-chloro-2-fluorophenyl)-2-(dimethylamino)-1-methyl-6-oxo-1,6-dihydropyridin-3-yl)amino)-N-(1-hydroxypropan-2-yl)nicotinamide] | 2000 to 5000 nM
CSc1[nH]c(=O)c(-c2cc(Cl)ccc2F)cc1Nc1ccnc2ccncc12 [Compound 1.36, 5-((1,6-naphthyridin-4-yl)amino)-3-(5-chloro-2-fluorophenyl)-6-(methylthio)pyridin-2(1H)-one] | ≤ 500 nM
CCc1[nH]c(=O)c(-c2cc(Cl)ccc2F)cc1Nc1ccnc2ccncc12 [Compound 1.71, 5-((1,6-naphthyridin-4-yl)amino)-3-(5-chloro-2-fluorophenyl)-6-ethylpyridin-2(1H)-one] | ≤ 500 nM
CC(=O)Nc1cc(Nc2cc(-c3ccc(F)c(C)c3)c(=O)[nH]c2C(C)C)ccn1 [Compound 1.83, N-(4-((5-(4-fluoro-3-methylphenyl)-2-isopropyl-6-oxo-1,6-dihydropyridin-3-yl)amino)pyridin-2-yl)acetamide] | ≤ 500 nM
CC(=O)Nc1cc(Nc2cc(-c3ccccc3CO)c(=O)[nH]c2C(C)C)ccn1 [Compound 1.53, N-(4-((5-(2-(hydroxymethyl)phenyl)-2-isopropyl-6-oxo-1,6-dihydropyridin-3-yl)amino)pyridin-2-yl)acetamide] | > 5000 nM
CN(C)c1[nH]c(=O)c(-c2cc(Cl)ccc2F)cc1Nc1ccncc1C(=O)NC(CO)CO [Compound 1.11] | > 5000 nM
COc1[nH]c(=O)c(-c2cc(Cl)ccc2F)cc1Nc1ccnc2ccncc12 [Compound 1.73, 5-((1,6-naphthyridin-4-yl)amino)-3-(5-chloro-2-fluorophenyl)-6-methoxypyridin-2(1H)-one] | 500 to 2000 nM
CC(=O)Nc1cc(N(C)c2cc(-c3cc(Cl)ccc3F)c(=O)[nH]c2C(C)C)ccn1 [Compound 1.66, N-(4-((5-(5-chloro-2-fluorophenyl)-2-isopropyl-6-oxo-1,6-dihydropyridin-3-yl)(methyl)amino)pyridin-2-yl)acetamide] | 500 to 2000 nM
CN(C)c1[nH]c(=O)c(-c2cc(Cl)ccc2F)cc1Nc1ccncc1F [Compound 1.41, 3-(5-chloro-2-fluorophenyl)-6-(dimethylamino)-5-((3-fluoropyridin-4-yl)amino)pyridin-2 (1H)-one] | 2000 to 5000 nM
CC(C)c1[nH]c(=O)c(-c2cc(Cl)ccc2F)cc1Nc1ncnc2c1CC(=O)N2 [Compound 1.78, 4-((5-(5-chloro-2-fluorophenyl)-2-isopropyl-6-oxo-1,6-dihydropyridin-3-yl)amino)-5,7-dihydro-6H-pyrrolo[2,3-d]pyrimidin-6-one] | ≤ 500 nM
CC(C)c1[nH]c(=O)c(-c2ccc(F)c(Cl)c2)cc1Nc1ccnc2[nH]ncc12 [Compound 1.84, 5-((1H-pyrazolo[3,4-b]pyridin-4-yl)amino)-3-(3-chloro-4-fluorophenyl)-6-isopropylpyridin-2(1H)-one] | ≤ 500 nM
C[C@@H](O)CNC(=O)c1cnccc1Nc1cc(-c2cc(Cl)ccc2F)c(=O)n2c1N(C)CC2 [Compound 1.24, (R)-4-((6-(5-chloro-2-fluorophenyl)-1-methyl-5-oxo-1,2,3,5-tetrahydroimidazo[1,2-a]pyridin-8-yl)amino)-N-(2-hydroxypropyl)nicotinamide] | > 5000 nM
CC(C)c1[nH]c(=O)c(-c2cc(Cl)ccc2F)cc1Nc1c(F)cnc2[nH]ccc12 [Compound 1.57, 3-(5-chloro-2-fluorophenyl)-5-((5-fluoro-1H-pyrrolo[2,3-b]pyridin-4-yl)amino)-6-isopropylpyridin-2(1H)-one] | ≤ 500 nM
CC(=O)Nc1cc(Nc2cc(-c3ccsc3)c(=O)[nH]c2C(C)C)ccn1 [Compound 1.79, N-(4-((2-isopropyl-6-oxo-5-(thiophen-3-yl)-1,6-dihydropyridin-3-yl)amino)pyridin-2-yl)acetamide] | ≤ 500 nM
CC(C)c1[nH]c(=O)c(-c2cc(Cl)ccc2F)cc1Nc1ccnc(NC(=O)CCC(F)(F)F)c1 [Compound 1.46, N-(4-((5-(5-chloro-2-fluorophenyl)-2-isopropyl-6-oxo-1,6-dihydropyridin-3-yl)amino)pyridin-2-yl)-4,4,4-trifluorobutanamide] | > 5000 nM
CN(C)c1[nH]c(=O)c(-c2cc(Cl)ccc2F)cc1Nc1ccncc1C(=O)NC(C)(C)CO [Compound 1.31, 4-((5-(5-chloro-2-fluorophenyl)-2-(dimethylamino)-6-hydroxypyridin-3-yl)amino)-N-(1-hydroxy-2-methylpropan-2-yl)nicotinamide] | > 5000 nM
CC(C)c1[nH]c(=O)c(-c2cc(Cl)ccc2F)cc1Nc1ccnc(NC(=O)CN2CCOCC2)c1 [Compound 1.65, N-(4-((5-(5-chloro-2-fluorophenyl)-2-isopropyl-6-oxo-1,6-dihydropyridin-3-yl)amino)pyridin-2-yl)-2-morpholinoacetamide] | > 5000 nM
Cc1cnc(Nc2cc(Nc3cc(-c4cc(Cl)ccc4F)c(=O)[nH]c3C3CC3)ccn2)s1 [Compound 1.77, 3-(5-chloro-2-fluorophenyl)-6-cyclopropyl-5-((2-((5-methylthiazol-2-yl)amino)pyridin-4-yl)amino)pyridin-2(1H)-one] | 2000 to 5000 nM
CC(C)c1[nH]c(=O)c(-c2cc(Cl)ccc2F)cc1Nc1ccnc(C(C)(C)C#N)c1 [Compound 1.60, 2-(4-((5-(5-chloro-2-fluorophenyl)-2-isopropyl-6-oxo-1,6-dihydropyridin-3-yl)amino)pyridin-2-yl)-2-methylpropanenitrile] | > 5000 nM
C[C@@H](CO)NC(=O)c1cnccc1Nc1cc(-c2cc(Cl)ccc2F)c(=O)n2c1N(C)CCC2 [Compound 1.21, (S)-4-((7-(5-chloro-2-fluorophenyl)-1-methyl-6-oxo-1,3,4,6-tetrahydro-2H-pyrido[1,2-a]pyrimidin-9-yl)amino)-N-(1-hydroxypropan-2-yl)nicotinamide] | 500 to 2000 nM
CC(=O)Nc1cc(Nc2cc(-c3cccc(Cl)c3)c(=O)[nH]c2C(C)C)ccn1 [Compound 1.81, N-(4-((5-(3-chlorophenyl)-2-isopropyl-6-oxo-1,6-dihydropyridin-3-yl)amino)pyridin-2-yl)acetamide] | ≤ 500 nM
CC(C)c1[nH]c(=O)c(-c2cc(Cl)ccc2F)cc1Nc1ccnc(NC(=O)CN2CCCC2)c1 [Compound 1.47, N-(4-((5-(5-chloro-2-fluorophenyl)-2-isopropyl-6-oxo-1,6-dihydropyridin-3-yl)amino)pyridin-2-yl)-2-(pyrrolidin-1-yl)acetamide] | ≤ 500 nM
CC(=O)Nc1cc(Nc2cc(-c3ccc(C(F)(F)F)nc3)c(=O)[nH]c2C(C)C)ccn1 [Compound 1.56, N-(4-((6-isopropyl-2-oxo-6′-(trifluoromethyl)-1,2-dihydro-[3,3′-bipyridin]-5-yl)amino)pyridin-2-yl)acetamide] | > 5000 nM
CN1CCn2c1c(Nc1ccnc3[nH]ccc13)cc(-c1cc(Cl)ccc1F)c2=O [Compound 1.18, 8-((1H-pyrrolo[2,3-b]pyridin-4-yl)amino)-6-(5-chloro-2-fluorophenyl)-1-methyl-2,3-dihydroimidazo[1,2-a]pyridin-5(1H)-one] | ≤ 500 nM
